Source: patent US8728506B2, “Durable pest repellent and pest repellent resin composition” (Toagosei Co., Ltd., priority 2009, dated 2014)

Legend:
[1] = Evaluation of resin moldability (injection molding in polyethylene resin); type: physicochemical; details: repellent chemical 0.3 %, molding 250° C., residence 5 min
Excerpt: The durable pest repellents prepared in Examples 1-1 to 1-10, and the comparative pest repellents prepared in Comparative Examples 1-1 to 1-14 and Comparative Reference Example 1-1 were mixed with a polyethylene resin (PE-NUC-8350, Nippon Unicar Co., Ltd.). For example, in the durable pest repellent of Example 1-1, since the amount of pest repellent chemical supported was 3 mass %, when the amount of repellent added in a resin composition shown in Table 2 was 5%, the amount of pest repellent chemical added was calculated as 0.15 mass %, and when the amount of repellent added in the resin composition was 10%, the amount of pest repellent chemical added was calculated as 0.3 mass %.
Resin compositions were produced by adjusting the amount of each repellent added to the resin composition so that the amount of pest repellent chemical added in the resin composition was 0.3 mass %, 0.15%, and 0.6%, they were injection-molded into flat plates, and evaluation of whether kneading into the resin was possible was carried out. Molding was carried out using a Model M-50A(II)-DM manufactured by Meiki Co., Ltd. at a molding temperature of 250° C., thus giving 10 cm square plates having a thickness of 2 mm. Furthermore, the residence time was 5 minutes, and checks as to whether or not there was foaming, a strange smell, or discoloration during molding were carried out. […]
The durable pest repellents prepared in Examples 2-1 to 2-12, the comparative pest repellents prepared in Comparative Examples 2-1 to 2-4, and Comparative Reference Example 2-1 were mixed with a polyethylene resin (PE-NUC-8350, Nippon Unicar Co., Ltd.). For example, in the durable pest repellent of Example 2-1, since the amount of pest repellent chemical supported was 5 mass %, when the amount of repellent added in a resin composition shown in Table 4 was 3%, the amount of pest repellent chemical added was calculated as 0.15 mass %, and when the amount of repellent added in the resin composition was […], the amount of pest repellent chemical added was calculated as 0.3 mass %. […]

house dust mite [2] = assay: Evaluation of repellency, anti-mite intrusion-prevention method JIS L 1920; type: in vivo; details: polyethylene plate, repellent chemical 0.3 %
Description: (§1) Plates molded after adding the pest repellents prepared in Examples 1-1 to 1-10 and Comparative Examples 1-1 to 1-14 and Comparative Reference Example 1-1 to a polyethylene resin (PE-NUC-8350 manufactured by Nippon Unicar Co., Ltd.) so that the pest repellent chemical was 0.3 mass % of the entire resin composition were cut into circles having a diameter of a little under 4 cm and subjected to a test for anti-mite properties. The test was carried by an intrusion-prevention method in accordance with JIS L 1920 ‘Testing methods for efficacy against house dust mite of textiles’. Plates molded after adding the durable pest repellents prepared in Examples 2-1 to 2-4, comparative pest repellents prepared in Comparative Examples 2-1 to 2-4, and Comparative Reference Example 2-1 to a polyethylene resin (PE-NUC-8350 manufactured by Nippon Unicar Co., Ltd.) so that the pest repellent chemical was 0.3 mass % of the entire resin composition were cut into circles having a diameter of a little under 4 cm and subjected to a test for anti-mite properties. The test was carried by an intrusion-prevention method in accordance with JIS L 1920 ‘Testing methods for efficacy against house dust mite of textiles’.

[3] = Heat resistance by thermal analysis (TG/DTA in air); type: physicochemical; details: temperature at which amount of supported chemical component is reduced by 1/3, 30-600° C., 20° C./min
Description: Furthermore, it was confirmed by thermal analysis that the supported N,N-diethyl-m-toluamide acquired heat resistance. The thermal analysis was carried out using a Model TG/DTA220 manufactured by Seiko Instruments under an air atmosphere, the measurement temperature was 30° C. to 600° C., and the rate of temperature increase was 20° C./min. Since the measurement is carried out in air, the overall heat resistance in air including vaporization and oxidative decomposition can be evaluated, and N,N-diethyl-m-toluamide that only adheres to the surface of a porous substance having a large specific surface area is subjected to oxidative decomposition at relatively low temperature and the weight decreases, whereas it is expected that N,N-diethyl-m-toluamide that is packed between layers of the inorganic layered compound without gaps is resistant to vaporization and oxidative decomposition and the weight will be maintained up to a higher temperature. […]

house dust mite [4] = assay: Evaluation of persistence of repellence (after heating), JIS L 1920; type: in vivo; details: polyethylene plate, repellent chemical 0.3 %; held at 81° C. for 48 hours
Description: as §1, with “pest repellent component was 0.3” for “pest repellent chemical was 0.3”, “mass % were held in a dryer at 81° C. for 48 hours. They were cut” for “mass % of the entire resin composition were cut”, “2-1 to 2-12, the comparative pest” for “2-1 to 2-4, comparative pest”

Molding properties Bad smell [1]: Some | Molding properties Coloration [1]: None | Molding properties Foaming [1]: Some | Heat resistance [3]: 180 °C
SMILES: CCN(CC)C(=O)c1cccc(C)c1 [Comp. Ref. Ex. 1-1, N,N-diethyl-m-toluamide]
Initial percentage repellence (house dust mite [2]): 21% | Post-heating percentage repellence (house dust mite [4]): 0%
